This passage reports activity coefficient results from the NIST ThermoML archive (doi:10.1021/je700297c).

Numbers after ± are expanded uncertainties.

The data set is described as follows: activity coefficient (dimensionless); of the first substance listed, at infinite dilution; xn = mol fraction of the nth substance listed. The following applies: Liquid, Chromatography, x1 = 0.

For `CCOC(C)=O` [ethyl acetate] + CCCCCCCC[n+]1ccn(C)c1.F[B-](F)(F)F, the activity coefficient is, setting by setting: (298 K) 0.9 ± 0.1; (323 K) 0.8 ± 0.1. Turning to `Cc1ccccc1` [toluene] + CCCCCCCCCCCCCCCC(=O)[O-].CCCCn1cc[n+](C)c1, where the note is “333 K”, the activity coefficient is 0.8 ± 0.1. Turning to `CCOC(C)=O` [ethyl acetate] + CCCC[n+]1ccn(C)c1.O=S(=O)([N-]S(=O)(=O)C(F)(F)F)C(F)(F)F, the activity coefficient (323 K) is 0.7 ± 0.1. Regarding `CO` [methanol] + C[n+]1ccn(CCCC#N)c1.O=S(=O)([N-]S(=O)(=O)C(F)(F)F)C(F)(F)F, the activity coefficient stood at 1.1 ± 0.1 (303 K) and 1 ± 0.1 (323 K).

For the compound `C=CCCCCCC` [oct-1-ene] + CCCCCCCCCCCCCCCC(=O)[O-].CCCCn1cc[n+](C)c1, the activity coefficient (333 K) is 1.4 ± 0.1. In the case of `C=CCCCCCC` [oct-1-ene] + C[n+]1ccn(CCCC#N)c1.O=S(=O)([N-]S(=O)(=O)C(F)(F)F)C(F)(F)F, the activity coefficient was 119 ± 8.1 (303 K) and 106 ± 7.2 (323 K).

Regarding `C=CCCCCCC` [oct-1-ene] + C[n+]1ccn(CCCC#N)c1.N#CN=C=[N-], the activity coefficient by setting is: (303 K) 142 ± 9.8; (323 K) 136 ± 9.3.

As for `c1ccccc1` [benzene] + C[n+]1ccn(CCCC#N)c1.O=S(=O)([N-]S(=O)(=O)C(F)(F)F)C(F)(F)F, the activity coefficient amounted to 1.8 ± 0.1 (303 K) and 1.7 ± 0.1 (323 K). As to `C1CCOC1` [tetrahydrofuran] + CCCCn1cc[n+](C)c1.F[B-](F)(F)F, the activity coefficient runs as follows: (298 K) 1.4 ± 0.1; (323 K) 1.4 ± 0.1.

In the case of `Cc1ccccc1` [toluene] + C[n+]1ccn(CCCC#N)c1.N#CN=C=[N-], the activity coefficient runs as follows: (303 K) 4.3 ± 0.3; (323 K) 4 ± 0.3. Turning to `c1ccccc1` [benzene] + CCCCCCCC[n+]1ccn(C)c1.F[B-](F)(F)F, the activity coefficient is, setting by setting: (298 K) 0.7 ± 0.1; (323 K) 0.6 ± 0.1. Turning to `CO` [methanol] + CCCC[n+]1ccn(C)c1.O=S(=O)([N-]S(=O)(=O)C(F)(F)F)C(F)(F)F, the activity coefficient (323 K) was determined as 0.8 ± 0.1.

Regarding `CCCCCC` [hexane] + CCCCCCCCCCCCCCCCCC(=O)[O-].CCCCn1cc[n+](C)c1, the activity coefficient is 1.7 ± 0.1 (323 K) and 1.4 ± 0.1 (333 K).

As to `CC1CCCCC1` [methylcyclohexane] + CCCCCCCCCCCCCCCC(=O)[O-].CCCCn1cc[n+](C)c1, for the setting “333 K”, the activity coefficient worked out at 1 ± 0.1. With `C=CCCCCCC` [oct-1-ene] + CCCCCCCCCCCCCCCCCC(=O)[O-].CCCCn1cc[n+](C)c1, the activity coefficient by setting is: (323 K) 1.7 ± 0.1; (333 K) 1.4 ± 0.1. For the compound `C=CCCCC` [hex-1-ene] + CCCCCCCC[n+]1ccn(C)c1.F[B-](F)(F)F, the activity coefficient is, setting by setting: (298 K) 4.9 ± 0.3; (323 K) 3.9 ± 0.3. On to `CO` [methanol] + CCCCCCCCCCCCCCCCCC(=O)[O-].CCCCn1cc[n+](C)c1, for which the activity coefficient reads like this: (323 K) 0.3 ± 0.1; (333 K) 0.3 ± 0.1. Consider `CO` [methanol] + CCCCCCCC[n+]1ccn(C)c1.F[B-](F)(F)F, for which the activity coefficient was determined as 0.3 ± 0.1 (298 K) and 0.3 ± 0.1 (323 K).
